From patent publication US11987648B2, “Cyclohexapeptides as selective somatostatin SST5 receptor agonists” (Heptares Therapeutics Limited, priority 2018, dated 2024) come the findings set out here.

*1 amine or outer side, *2 acyl side, *3 side chain or, on linkers, in order; H or OH if unused. Where a SMILES comes first, the peptide text is derived from it. Side-chain parts run from the residue outwards. [ ]: non-standard residue; d: D form. The star is where a group is joined. Ala(piperidin-4-yl) = O=C([C@H](CC1CCN([*:3])CC1)N[*:1])[*:2]; dTrp(5-OMe) = COc1ccc2[nH]cc(C[C@@H](N)C(=O)O)c2c1; X8 = COc1cc2c(cc1OC)CN([*:1])[C@H](C(=O)[*:2])C2; Ala(piperazin-1-yl) = N[C@@H](CN1CCNCC1)C(=O)O; X7 = NCCOC(=O)N1CCN([*:1])[C@H](C(=O)[*:2])C1; Phe(4-Cl) = N[C@@H](Cc1ccc(Cl)cc1)C(=O)O; Morpholine(3S-CO) = O=C(O)[C@@H]1COCCN1; Ethylenediamine = C(CN[*:2])N[*:1]; d(hPhe) = N[C@H](CCc1ccccc1)C(=O)O; Hyp = O=C(O)[C@@H]1C[C@@H](O)CN1; hPhe = N[C@@H](CCc1ccccc1)C(=O)O; 3Pal = N[C@@H](Cc1cccnc1)C(=O)O; Cyclohexylmethyl = C1CCC(C*)CC1; Tic = O=C(O)[C@@H]1Cc2ccccc2CN1; Phg = N[C@H](C(=O)O)c1ccccc1; CO = O=C([*:1])[*:2]; Bn = c1ccc(C*)cc1

One test concerns the target SST5 (Homo sapiens, UniProt P35346). The experiment in a line: Hit Hunter cAMP XS+ assay, SST5 activation via Gi (reduction of forskolin-stimulated cAMP). The format is cell-based. Particulars: for Emax: read-out: SST5 (EMax); for EC50: reduction of forskolin-stimulated cAMP, 4-parameter logistic fit, read-out: SST5 pEC50 (converted); for SST5/2 Selectivity: selectivity for SST5 over SST2. As for the experimental part:
(§1) A Hit Hunter® cAMP XS+ assay was used to monitor activation of the SST2 and SST5 via the Gi G protein. Cells were pre-stimulated with forskolin to elicit a cAMP response and the potency and efficacy of somatostatin agonists to reduce cAMP was measured. Briefly cells (10,000 cells/well) were incubated (37° C.; 30 min) with compound ([…]) in media (2:1 HBSS/11 mM Hepes: cAMP XS+Ab reagent) in the presence of EC80 forskolin ([…] and 15 μM SST5). Signal was detected through incubation with 20 μL cAMP XS+ED/CL lysis cocktail ([…]; RT) followed by incubation with […] cAMP XS+EA reagent (180 min; RT). Microplates were read with a PerkinElmer Envision™ instrument for chemiluminescent signal detection.

The next test has as its target SST2 (Homo sapiens, UniProt P30874). The test is described as follows: Hit Hunter cAMP XS+ assay, SST2 activation via Gi (reduction of forskolin-stimulated cAMP). The test is classed as cell-based. Particulars: for Emax: read-out: SST2 (EMax); for EC50: reduction of forskolin-stimulated cAMP, 4-parameter logistic fit, read-out: SST2 pEC50 (converted). On the procedure: as §1

SST5, sequence (P35346 whole entry): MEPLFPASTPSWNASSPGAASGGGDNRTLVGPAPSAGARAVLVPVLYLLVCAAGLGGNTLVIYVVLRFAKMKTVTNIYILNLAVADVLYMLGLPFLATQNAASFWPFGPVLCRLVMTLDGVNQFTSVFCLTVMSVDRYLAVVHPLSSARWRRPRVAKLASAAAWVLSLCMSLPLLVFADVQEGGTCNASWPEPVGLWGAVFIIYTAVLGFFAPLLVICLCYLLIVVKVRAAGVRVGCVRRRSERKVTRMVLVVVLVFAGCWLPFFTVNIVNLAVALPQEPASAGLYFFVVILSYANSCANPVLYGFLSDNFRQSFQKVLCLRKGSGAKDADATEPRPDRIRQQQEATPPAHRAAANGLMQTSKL
SST2, sequence (P30874 whole entry): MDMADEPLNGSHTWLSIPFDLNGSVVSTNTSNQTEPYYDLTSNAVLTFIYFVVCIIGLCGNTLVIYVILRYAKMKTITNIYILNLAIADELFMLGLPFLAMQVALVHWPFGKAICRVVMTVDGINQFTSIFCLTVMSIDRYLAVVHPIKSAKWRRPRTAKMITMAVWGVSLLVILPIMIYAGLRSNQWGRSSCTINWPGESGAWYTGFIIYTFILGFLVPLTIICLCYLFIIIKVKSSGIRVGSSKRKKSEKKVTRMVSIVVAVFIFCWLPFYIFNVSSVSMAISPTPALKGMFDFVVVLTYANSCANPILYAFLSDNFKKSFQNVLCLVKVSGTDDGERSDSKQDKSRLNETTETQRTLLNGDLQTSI

Turning to `COc1cc2c(cc1OC)CN1C(=O)[C@H](Cc3ccc(OCc4ccccc4)cc3)NC(=O)[C@H](CC3CCNCC3)NC(=O)[C@@H](Cc3c[nH]c4ccccc34)NC(=O)[C@H](CCc3ccccc3)NC(=O)[C@@H]3C[C@@H](OC(=O)NCCN)CN3C(=O)[C@@H]1C2` [Example 66] (cyclo([Hyp]([CO-Ethylenediamine])[hPhe][dW][Ala(piperidin-4-yl)]Y(Bn)[X8])), on SST5, the Emax is 103%, the EC50 is 1.26 nM and the “SST5/2 Selectivity” value stood at 7454.5. On SST2, the Emax amounted to 51.1% and the EC50 is over 10000 nM.
Take `O=C1N[C@@H](Cc2ccc(OCc3ccccc3)cc2)C(=O)N2Cc3ccccc3C[C@H]2C(=O)N2CCOC[C@H]2C(=O)N[C@@H](CCc2ccccc2)C(=O)N[C@H](Cc2c[nH]c3ccccc23)C(=O)N[C@H]1CN1CCNCC1` [Example 31] (cyclo([Tic][Morpholine(3S-CO)][hPhe][dW][Ala(piperazin-1-yl)]Y(Bn))): at SST5, the Emax worked out at 88.7%, the EC50 is 0.0631 nM and the “SST5/2 Selectivity” value worked out at 3441.5. Besides, on SST2, the Emax was 99.7% and the EC50 was 200 nM.
Take `NCCNC(=O)O[C@@H]1C[C@H]2C(=O)N[C@H](CCc3ccccc3)C(=O)N[C@H](Cc3c[nH]c4ccccc34)C(=O)N[C@@H](CN3CCNCC3)C(=O)N[C@@H](Cc3ccc(OCC4CCCCC4)cc3)C(=O)N[C@@H](Cc3cccnc3)C(=O)N2C1` [Example 71] (cyclo([3Pal][Hyp]([CO-Ethylenediamine])[d(hPhe)][dW][Ala(piperazin-1-yl)]Y(Cyclohexylmethyl))): on SST5, the Emax worked out at 103%, the EC50 is 63.1 nM and the “SST5/2 Selectivity” value turned out to be 171.4. Moreover, at SST2, the Emax was found to be 52.8% and the EC50 is over 10000 nM.
`COc1ccc2[nH]cc(C[C@H]3NC(=O)[C@H](c4ccccc4)NC(=O)[C@@H]4C[C@@H](OC(=O)NCCN)CN4C(=O)[C@H](Cc4ccccc4)NC(=O)[C@H](Cc4ccc(OCc5ccccc5)cc4)NC(=O)[C@H](CC4CCNCC4)NC3=O)c2c1` [Example 5] (cyclo(F[Hyp]([CO-Ethylenediamine])[Phg][dTrp(5-OMe)][Ala(piperidin-4-yl)]Y(Bn))): on SST5, the Emax was found to be 98.7%, the EC50 was 10 nM and the “SST5/2 Selectivity” value was found to be 33.8. For the same compound, on SST2, the Emax was determined as 97.6% and the EC50 was 316 nM.
Turning to `NCCNC(=O)O[C@@H]1C[C@H]2C(=O)N[C@H](CCc3ccccc3)C(=O)N[C@H](Cc3c[nH]c4ccccc34)C(=O)N[C@@H](CC3CCNCC3)C(=O)N[C@@H](Cc3ccc(OCC4CCCCC4)cc3)C(=O)N[C@@H](Cc3cccnc3)C(=O)N2C1` [Example 53] (cyclo([3Pal][Hyp]([CO-Ethylenediamine])[d(hPhe)][dW][Ala(piperidin-4-yl)]Y(Cyclohexylmethyl))), on SST5, the Emax is 103%, the EC50 was 31.6 nM and the “SST5/2 Selectivity” value was 293.1. Also, on SST2, the Emax was found to be 50.9% and the EC50 is over 10000 nM.
For `NCCOC(=O)N1CCN2C(=O)[C@@H]3Cc4ccccc4CN3C(=O)[C@H](Cc3ccc(OCc4ccccc4)cc3)NC(=O)[C@H](CN3CCNCC3)NC(=O)[C@@H](Cc3c[nH]c4ccccc34)NC(=O)[C@H](CCc3ccccc3)NC(=O)[C@@H]2C1` [Example 72] (cyclo([Tic][X7][hPhe][dW][Ala(piperazin-1-yl)]Y(Bn))) the same measures were 101%, 6.31 nM, 1621.3, 14% and over 10000 nM.
`NCCNC(=O)O[C@@H]1C[C@H]2C(=O)N[C@@H](CCc3ccccc3)C(=O)N[C@H](Cc3c[nH]c4ccccc34)C(=O)N[C@@H](CN3CCNCC3)C(=O)N[C@@H](Cc3ccc(OCc4ccccc4)cc3)C(=O)N[C@@H](Cc3ccc(Cl)cc3)C(=O)N2C1` [Example 51] (cyclo([Hyp]([CO-Ethylenediamine])[hPhe][dW][Ala(piperazin-1-yl)]Y(Bn)[Phe(4-Cl)])): at SST5, the Emax was determined as 106%, the EC50 is 0.0794 nM and the “SST5/2 Selectivity” value was 64.3. Besides, on SST2, the Emax came to 100% and the EC50 was 5.01 nM.

In general, Emax refers to the greatest response seen or fitted, relative to the assay's reference.
